Series [1] has as its target T1, haspin (Homo sapiens, UniProt Q8TF76).
T1 sequence (Q8TF76 1-798): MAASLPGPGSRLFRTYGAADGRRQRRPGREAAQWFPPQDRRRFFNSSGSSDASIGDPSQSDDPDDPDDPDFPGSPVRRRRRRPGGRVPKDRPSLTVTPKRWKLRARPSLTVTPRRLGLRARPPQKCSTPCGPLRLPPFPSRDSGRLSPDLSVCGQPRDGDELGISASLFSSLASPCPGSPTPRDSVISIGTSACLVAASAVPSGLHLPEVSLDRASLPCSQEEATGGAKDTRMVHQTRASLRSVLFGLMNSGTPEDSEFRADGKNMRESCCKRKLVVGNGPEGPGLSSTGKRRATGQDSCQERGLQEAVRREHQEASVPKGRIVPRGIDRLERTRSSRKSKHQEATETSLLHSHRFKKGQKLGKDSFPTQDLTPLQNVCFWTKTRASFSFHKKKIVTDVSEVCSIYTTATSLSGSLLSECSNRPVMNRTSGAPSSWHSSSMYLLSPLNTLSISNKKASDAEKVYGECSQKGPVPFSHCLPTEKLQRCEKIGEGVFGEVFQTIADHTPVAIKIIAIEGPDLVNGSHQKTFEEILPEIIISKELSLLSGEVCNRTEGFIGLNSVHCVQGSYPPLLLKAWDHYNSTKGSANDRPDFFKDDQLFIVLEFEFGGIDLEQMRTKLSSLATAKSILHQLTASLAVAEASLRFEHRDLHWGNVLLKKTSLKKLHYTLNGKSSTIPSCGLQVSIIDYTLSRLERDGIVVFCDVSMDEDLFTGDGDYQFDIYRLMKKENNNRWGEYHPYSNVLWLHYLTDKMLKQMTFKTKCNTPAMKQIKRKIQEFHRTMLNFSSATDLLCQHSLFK
The experiment in a line: kinome profiling at 1 μM, haspin. The series is classed as biochemical. The source says: We profiled three compounds from the series across the kinome (FIG. 11). […] To identify the structural drivers for CDK inhibition, we obtained X-ray crystal structures of 5 y and 6 g SU1336 and SU1349 with CDK-2 (FIG. 12A) to potentially identify possible routes towards introducing selectivity for IKKα over the CDK enzymes as well as IKKβ. […] All three derivatives form complexes with CDK2 with the pyrrolo[2,3 -b]pyridine H-bonding to GK+3 (Leu 83 ) and the aminoindazole projected towards the G-loop (FIG. 12A), forming H-bonds with Glu 51 and Lys 33 at the back of the pocket. The adoption of the 4 SU1253 -type orientation, rather than the flipped pose observed in IKKα, is probably facilitated by Tr-stacking between the aminoindazole and the GK residue, which in the CDKs is Phe, rather than Met. […] For 6 g SU1349, the hydrophobic pendant benzyloxy group points out into solvent, but can form face-to-edge Tr-Tr interactions with Phe 82 and His 84 from the hinge. Exchanging the hydrophobic pendant benzyloxy group for the morpholinoethyl-containing substituent in 5 y SU1336 removes any direct interaction with these hinge residues, preferring to sit in a more solvent-exposed position, as befits a basic side chain that will be protonated at physiological pH (FIG. 12B).

Series [2] in a line: Turbidimetric solubility. It counts as physicochemical.
Series [3] in a line: in vivo murine PK in CD1 mice. Also on record: species or system mouse. Particulars: 10 mg/kg, mean. As to the method:
[…] Prior formulation/solubility assessment was performed in routine excipients e.g., DMSO: cyclodextrin or HMPC/Tween 80 . Intravenous time points were taken at 5 min, 15 min, 30 min, 1, 2, 4, 8, and 24 hours and intraperitoneal time points were taken at 15 min, 30 min, 1, 2, 4, 6, 8, and 24 hours. Blood samples were prepared by protein precipitation with methanol or acetonitrile containing internal standard and then measured quantitative bioanalysis by LC-MS/MS.

For series [4], the system named is mouse hepatocytes. Nature of the series: mouse hepatocyte clearance (cryopreserved pooled mouse CD1 hepatocytes). The series is classed as in vitro ADME. Particulars: mouse hepatocytes. How it is done:
Pharmacokinetic studies were contracted to Sygnature Discovery Limited. Intrinsic clearance and half life were determined using cryopreserved pooled mouse CD1 hepatocytes. Test compounds were analysed at 1 μM in Williams Media E buffer (0.01 % DMSO) at a cell density of 0.5×10^6 cells mL^−1 . Cells were incubated at 37° C. for one hour with shaking and compound depletion was measured by LC-MS/MS at six timepoints (0.25, 5, 10, 20, 40, and 60 minutes).

The structures appear in SMILES notation. Where only a bound is given, the exact number is not on record here.

In general, inhibition refers to the relative decrease from the control value, in per cent. The low end stands for a response near the control, the high end for a response far below the control. With `Nc1n[nH]c2ccc(-c3ccnc4[nH]c(-c5cccc(OCc6ccccc6)c5)cc34)cc12` [5r SU1261, 5-(2-(3-(benzyloxy)phenyl)-1 H-pyrrolo[2,3-b]pyridin-4-yl)-1 H-indazol-3-amine], the inhibition at 1 µM in series [1] was greater than 80%.

As usually defined, the Cmax is the peak of the concentration-time curve. The Tmax is the time at which the peak concentration occurs. By Vss is commonly meant a proportionality between amount in the body and measured concentration, not a real space. Low values mean little distribution into tissue, high ones wide distribution into tissue. With `Nc1n[nH]c2ccc(-c3ccnc4[nH]c(-c5ccnc(OCc6ccccc6)c5)cc34)cc12` [6g SU1349, 5-(2-(2-(Benzyloxy)pyridin-4-yl)-1 H-pyrrolo[2,3-b]pyridin-4-yl)-1 H-indazol-3-amine], the “solubility, in words” value in series [2] is listed as “most soluble in the series that displayed selectivity”. In addition, in series [3] (I.P.), the highest concentration (Cmax) is recorded as 199 ng/mL, the F was determined as 9.3%, the “Terminal t1/2” value was found to be 3.02 h and the time of peak concentration (Tmax) is 26.4 min. In series [3] (I.V.), the Clearance was 16.7 mL/min/kg, the “Terminal t1/2” value amounted to 4.18 h and the Vss is given as 0.39 L/kg. Also, the “in vitro murine clearance, in words” value in series [4] is “sufficiently low in vitro murine clearance”.

The values are drawn from patent US20260315487A1, “IKK-ALPHA INHIBITORS” (Cancer Research Technology Limited, priority 2023, published 2026).
